The results in this text go back to patent publication US6737383B1, “Herbicidal oxadiazolidines” (priority 1999, dated 2004).

The subject of one series is velvetleaf. The series is described as follows: Test A velvetleaf. Conditions: 0 to 10 scale where 0 is no effect and 10 is complete control. In kind it is in vivo, Abutilon theophrasti. As for the experimental part:
(§1) Seeds of barnyardgrass (Echinochloa crus-galli), crabgrass (Digitaria spp.), morningglory (Ipomoea spp.), and velvetleaf (Abutilon theophrasti) were planted into a sandy loam soil and treated preemergence by soil drench with test chemicals formulated in a non-phytotoxic solvent mixture which includes a surfactant At the same time, these crop and weed species were also treated postemergence sprayed to runoff, with test chemicals formulated in the same manner.
(§2) Plants ranged in height from two to eighteen cm and were in the one to two leaf stage for the postemergence treatment. Treated plants and untreated controls were maintained in a greenhouse for approximately eleven days, after which all treated plants were compared to untreated controls and visually evaluated for injury. Plant response ratings, summarized in Table A, are based on a 0 to 10 scale where 0 is no effect and 10 is complete control.

In a further series the test system is morningglory. The series is described as follows: Test A morningglory. Conditions: 0 to 10 scale where 0 is no effect and 10 is complete control. It is filed as in vivo, Ipomoea spp. Here is the method:
as §1, §2

The test system of a further series is barnyardgrass. In words: Test A barnyardgrass. It is filed as in vivo, Echinochloa crus-galli. Conditions: 0 to 10 scale where 0 is no effect and 10 is complete control. Here is the method:
as §1, §2

A further series deals with crabgrass. In words: Test A crabgrass. In kind it is in vivo, Digitaria spp. Conditions: 0 to 10 scale where 0 is no effect and 10 is complete control. The gist of the method:
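Injury scored visually after about eleven greenhouse days against untreated plants, 0 = no effect, 10 = complete control. Compounds, formulated in surfactant-containing non-phytotoxic solvent, were applied as preemergence soil drench to sandy loam plantings and as postemergence runoff spray at the 1–2 leaf stage.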

The subject of another series is maize hybrid P33G26. The series is described as follows: Test G maize injury with safener-treated seed. Conditions: presence of dichlormid; with the exception of Compound 131 at the rate of 560 g/ha. In outline: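 Maize hybrid P33G26 seed, treated with dichlormid, fenchlorazole-ethyl or naphthalic anhydride or left untreated, was sown in soil pots, then sprayed pre-emergence with several compound rates at 310 L/ha. Plants grew in a greenhouse (14 h day, about 27/24 °C day/night), with 4–5 replicates. Injury was scored visually against untreated controls 28 days after application.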

Series [1] deals with Pioneer hybrid P33G26 corn. In words: Test H corn injury, herbicide and safener mixtures applied to soil. It is filed as in vivo. Conditions: safeners for Compound 113. Here is the method:
Mixtures of the herbicide and safeners were applied to pots of a soil mixture previously sown with corn. Pioneer hybrid P33G26 corn was sown in pots containing a sterile mix of 60% sassafras soil and 40% Metro Mix 360® growing medium (pH 6.7, O.M. 2%). Test compounds were dissolved in AGWT (a mixture of 0.25% Tween 20 surfactant, 5% water, 5% glycerin and 89.75% acetone) and sprayed on the soil as pots passed under a stationary 8002E nozzle. Treatments were applied at a 33 gal/acre rate of the AGWT carrier. After treatment, the test pots were placed in the greenhouse and watered. There were two replications for each treatment. Each pot contained eight corn seeds. The pots within each replication were placed in random positions on greenhouse benches. Test plants were fertilized as they were watered with approximately 200 ppm of N (as water soluble 20-20-20 fertilizer) which was metered into the water lines with a fertilizer injector. Daytime temperatures was 23-30° C. and night time temperature was 18-25° C. The test plants were supplemented with artificial lighting. The lights were activated whenever the natural light intensity dropped below the programmed threshold. Day length was maintained for approximately 14 hours.
The test was evaluated approximately 12 days after treatment. […]

Series [2] deals with Abutilon theophrasti (ABUTH). The series is described as follows: Test F preemergence, alone and in mixture with rimsulfuron, ABUTH. It is filed as in vivo. Conditions: 21 days after treatment. As for the experimental part:
(§3) Abutilon theophrasti (ABUTH), Chenopodium album (CHEAL), Amaranthus rudis (AMATA), Setaria faberii (SETFA), Panicum dichotomiflorum (PANDI), and Digitaria sanguinalis (DIGSA) were grown from seed in pots of an artificial potting mixture in a greenhouse. Compounds of the present invention were applied at 70 and 105 g ai/ha preemergence. Rimsulfuron was applied at 8.8 and 17.5 g ai/ha. Mixtures of the compounds of the present invention and rimsulfuron were also applied.
(§4) Following application, the plants were maintained by watering as needed. A fertilizer solution of Peter's 20-20-20 (10 pounds/5 gallons of water) plus Sprint 330, a Iron Chelate micronutrient, (113.5 grams/5 gallons of water) was injected into the water with an Anderson fertilizer injection system to provide approximately 219 ppm of nitrogen with each watering. Artificial lighting was used to supplement natural light to produce a 14 hour photoperiod and: an additional one hour light period was used between 1:00 am to 2:00 am for a night interruption. Greenhouse temperatures were targeted for 27° C. in the day and 21° C. at night. At 21 days after treatment, all plants were evaluated for injury as compared to control plants that were sprayed only with non-phytotoxic solvent.
(§5) Colby's equation was used to calculate the expected additive herbicidal effect of the mixtures of Compound 21 and the mixture partners listed above. […]

The next series has as its system Amaranthus rudis (AMATA). The series is described as follows: Test F preemergence, alone and in mixture with rimsulfuron, AMATA. In kind it is in vivo. Conditions: 21 days after treatment. As for the experimental part: as §3, §4, §5
The test system of series [3] is Chenopodium album (CHEAL). The series is described as follows: Test F preemergence, alone and in mixture with rimsulfuron, CHEAL. It is filed as in vivo. Conditions: 21 days after treatment. As for the experimental part: as §3, §4, §5
The test system of series [4] is Digitaria sanguinalis (DIGSA). In words: Test F preemergence, alone and in mixture with rimsulfuron, DIGSA. It is filed as in vivo. Conditions: 21 days after treatment. Here is the method: as §3, §4, §5
Series [5] concerns Panicum dichotomiflorum (PANDI). In words: Test F preemergence, alone and in mixture with rimsulfuron, PANDI. In kind it is in vivo. Conditions: 21 days after treatment. As for the experimental part:
as §3, §4, §5

The next series deals with Setaria faberii (SETFA). The series is described as follows: Test F preemergence, alone and in mixture with rimsulfuron, SETFA. It is filed as in vivo. Conditions: 21 days after treatment. As for the experimental part:
as §3, §4, §5

The mark [6] stands for this setting: Alone: Cmpd. 0, Rimsulfuron rate 8.8.
The mark [7] stands for this setting: Alone: Cmpd. 0, Rimsulfuron rate 17.5.

What is called melting point is the temperature of the solid-liquid transition. Compound `CC(C)N(C(=O)n1oc(=O)[nH]c1=O)c1ccccc1` [Compound 386] registered a melting point of 116 to 117 °C. Moreover, the “Plant response rating, Velvetleaf” value in the series with velvetleaf (Postemergence, Rate 1000 g/ha) turned out to be 0. In the series on velvetleaf (Pre-emergence, Rate 2000 g/ha), the “Plant response rating, Velvetleaf” value turned out to be 0. For the same compound, in the series on morningglory (Postemergence, Rate 1000 g/ha), the “Plant response rating, Morningglory” value came out at 0. Moreover, in the series with morningglory (Pre-emergence, Rate 2000 g/ha), the “Plant response rating, Morningglory” value turned out to be 0. The “Plant response rating, Barnyardgrass” value with barnyardgrass (Postemergence, Rate 1000 g/ha) is 0. In the series on barnyardgrass (Pre-emergence, Rate 2000 g/ha), the “Plant response rating, Barnyardgrass” value came to 0. The “Plant response rating, Crabgrass” value with crabgrass (Postemergence, Rate 1000 g/ha) is reported as 0. In addition, the “Plant response rating, Crabgrass” value in the series with crabgrass (Pre-emergence, Rate 2000 g/ha) was 0.
In the case of `C=CCN(CC=C)C(=O)C(Cl)Cl` [dichlormid, reference compound], the “Safening effect on maize injury” value with maize hybrid P33G26 is on record as “reduced the injury to an insignificant level”. The “Safening of Compound 113 on corn” value in series [1] is reported as “functioned very effectively as safeners”.
Consider `CCS(=O)(=O)c1cccnc1S(=O)(=O)NC(=O)Nc1nc(OC)cc(OC)n1` [rimsulfuron], for which the “ABUTH Observed” value is 20% in series [2] (setting [6]) and 40% in series [2] (setting [7]). Moreover, the results for the “AMATA Observed” value in the series with Amaranthus rudis (AMATA) (setting [6]) and in the series with Amaranthus rudis (AMATA) (setting [7]) were 10% and 15%, respectively. Further, the “CHEAL Observed” value in series [3] (setting [6]) is 25%; in series [3] (setting [7]) it was 60%. The “DIGSA Observed” value was 95% in [4] (setting [6]) and 100% in series [4] (setting [7]). The figures for the “PANDI Observed” value in series [5] (setting [6]) and in series [5] (setting [7]) were 75% and 95%, respectively. For the same compound, the “SETFA Observed” value came to 75% in the series on Setaria faberii (SETFA) (setting [6]) and 90% in the series on Setaria faberii (SETFA) (setting [7]).
